Source: patent US7378403B2, “Akt inhibitors, pharmaceutical compositions, and uses thereof” (The United States of America as represented by the …, priority 2002, dated 2008)

Key:
Format in all cases: cell-based
[1] = test system: H1703, H157, and H1155 cells; assay: Apoptosis in cell lines with high levels of Akt activity; details: FIG. 4
Method: (§1) Cell lines containing high or low endogenous levels of Akt activity were treated with SH compounds and the cell apoptosis was measured.

p38 = assay: Immunoblotting with phospho-specific antibodies: p38 phosphorylation; details: H1703 (FIG. 3A) or H157 cells (FIG. 3B)
Method: (§2) The SH compounds were tested against Akt and other kinases that are either upstream of Akt (PDK-1), downstream of Akt (c-Raf, 4EBP-1, p70S6K, FKHR, GSK-3, and/or AFX), or downstream of Ras (ERK, p38). Immunoblotting was carried out with phospho-specific antibodies to assess activation state of the kinases, and with native antibodies to assess changes in protein levels. Similar results were obtained with the H1703 (FIG. 3A) or H157 cells (FIG. 3B). […] Upstream of Akt, phosphorylation of PDK-1 was not affected by any SH compound. Of the downstream substrates, c-Raf phosphorylation and 4EBP-1 phosphorylation were decreased most. Decreased c-Raf phosphorylation correlated with increased ERK and p38 phosphorylation, which is consistent with the inhibitory effect of S259 phosphorylation by Akt on c-Raf activity.

MB468 cells = assay: Apoptosis in MB468 cells; details: MB468 cells (data not shown)
Method: as §1

4EBP-1 = assay: Immunoblotting with phospho-specific antibodies: 4EBP-1 phosphorylation; details: summary, cell line not specified
Method: as §2

Akt = assay: Immunoblotting with antibodies against Akt phosphorylated at S473 and native Akt after administration of compounds to cancer cell lines; details: for native Akt levels (immunoblot) / Akt phosphorylation at S473 (immunoblot): FIG. 1D; for decreasing Akt phosphorylation: panel of cancer cell lines (summary)
Method: The SH compounds were tested against Akt and other kinases that are either upstream of Akt (PDK-1), downstream of Akt (c-Raf, 4EBP-1, p70S6K, FKHR, GSK-3, and/or AFX), or downstream of Ras (ERK, p38). Immunoblotting was carried out with phospho-specific antibodies to assess activation state of the kinases, and with native antibodies to assess changes in protein levels.

tuberin = assay: Phosphorylation of tuberin
Excerpt: SH5, 6, 23, 24, and 25 are very active in decreasing Akt phosphorylation in a panel of cancer cell lines. These compounds decrease Akt phosphorylation as well as Akt kinase activity, with IC50s in the low micromolar range. These compounds appear to be specific for Akt, as the phosphorylation of the upstream kinase, PDK-1, is unaffected by any of the SH compounds, as is […]. Cell-line specific, selective inhibition of phosphorylation of substrates downstream of Akt, such as c-Raf, 4EBP-1, GSK-3, and/or FKHR/AFX was observed. […] Phosphorylation of tuberin, 4EBP-1 and P70S6K (substrates that control protein translation) was inhibited by SH23, 24, and 25; and SH5-6 inhibited phosphorylation of tuberin and 4EBP-1. Phosphorylation of forkhead family members AFX and FKHR that control transcription was inhibited by SH23 or 25. Phosphorylation of GSK-3 and c-Raf was attenuated by SH23-25.

H1355 and A549 cells = assay: Apoptosis in cells with low endogenous Akt levels
Method: as §1

FKHR = assay: Immunoblotting with phospho-specific antibodies: FKHR phosphorylation
Method: as §2

p70S6K = assay: Immunoblotting with phospho-specific antibodies: p70S6K phosphorylation
Method: as §2

AFX = assay: Immunoblotting with phospho-specific antibodies: AFX phosphorylation
Method: as §2

[2] = H1703 (FIG. 3A) or H157 cells (FIG. 3B)

CCCCCCCCCCCCCCCCCCOCC(COP(=O)(O)OC1C(O)CC(O)C(O)C1O)OC (centres unmarked) [DPIEL]
increase of apoptosis [1]: no effect
p38 phosphorylation (p38): decreased

CCCCCCCCCCCCCCCCCCOC[C@H](COP(=O)(O)O[C@H]1[C@H](O)[C@@H](O)[C@H](O)C[C@H]1OC)OC [SH5]
apoptosis (MB468 cells): Increased apoptosis
phosphorylation of 4EBP-1 (4EBP-1): inhibited
native Akt levels (immunoblot) (Akt): without affecting
Akt phosphorylation (Akt; [2]): inhibited
native Akt levels (Akt; [2]): without affecting
Akt phosphorylation at S473 (immunoblot) (Akt; H1703 cells (wild type PTEN)): decreased
Akt phosphorylation (Akt; all three cell lines, FIG. 1F): completely inhibited
decreasing Akt phosphorylation (Akt): very active
phosphorylation of tuberin (tuberin): inhibited
apoptosis (H1355 and A549 cells): did not undergo apoptosis

CCCCCCCCCCCCCCCCCCOC[C@H](COP(=O)(O)O[C@@H]1CC[C@@H](O)[C@H](O)[C@H]1O)OC [SH6]
apoptosis (MB468 cells): Increased apoptosis
phosphorylation of 4EBP-1 (4EBP-1): inhibited
native Akt levels (immunoblot) (Akt): without affecting
Akt phosphorylation (Akt; [2]): inhibited
native Akt levels (Akt; [2]): without affecting
Akt phosphorylation at S473 (immunoblot) (Akt; H1703 cells (wild type PTEN)): decreased
Akt phosphorylation (Akt; all three cell lines, FIG. 1F): completely inhibited
decreasing Akt phosphorylation (Akt): very active
phosphorylation of tuberin (tuberin): inhibited
apoptosis (H1355 and A549 cells): did not undergo apoptosis

CCCCCCCCCCCCCCCCCCOC[C@H](CO)OC [SH7, reference compound]
increase of apoptosis [1]: no effect
Akt phosphorylation at S473 (immunoblot) (Akt; cell line not specified (H1703, H157)): lack of decreased phosphorylation
Akt phosphorylation (Akt; [2]): did not decrease
apoptosis (H1355 and A549 cells): did not undergo apoptosis

CCCCCCCCCCCCCCCCCCOC[C@H](COP(=O)(O)O[C@@H]1[C@H](O)[C@H](O)C[C@H](O)[C@H]1O)OC [SH10]
Akt phosphorylation (Akt; [2]): inhibited
native Akt levels (Akt; [2]): without affecting

CCCCCCCCCCCCCCCCCCOC[C@H](COP(=O)(O)O[C@H]1[C@H](O)C[C@H](O)C[C@H]1O)OC [SH16]
native Akt levels (immunoblot) (Akt): without affecting
Akt phosphorylation at S473 (immunoblot) (Akt; H157 cells (mutant PTEN)): All but SH16
Akt phosphorylation at S473 (immunoblot) (Akt; H1703 cells (wild type PTEN)): decreased

CCCCCCCCCCCCCCCCCCOCC(COP(=O)(O)OC1C(OCC(C)C)CC(O)C(O)C1O)OC (centres unmarked) [SH23]
phosphorylation of FKHR (FKHR): inhibited
phosphorylation of P70S6K (p70S6K): inhibited
phosphorylation of AFX (AFX): inhibited
phosphorylation of 4EBP-1 (4EBP-1): inhibited
native Akt levels (immunoblot) (Akt): without affecting
Akt phosphorylation at S473 (immunoblot) (Akt; H1703 cells (wild type PTEN)): decreased
Akt phosphorylation (Akt; all three cell lines, FIG. 1F): completely inhibited
decreasing Akt phosphorylation (Akt): very active
phosphorylation of tuberin (tuberin): inhibited

CCCCCCCCCCCCCCCCCCOCC(COP(=O)(O)OC1C(OCC2CCCCC2)CC(O)C(O)C1O)OC (centres unmarked) [SH24]
phosphorylation of P70S6K (p70S6K): inhibited
phosphorylation of 4EBP-1 (4EBP-1): inhibited
native Akt levels (immunoblot) (Akt): without affecting
Akt phosphorylation at S473 (immunoblot) (Akt; H1703 cells (wild type PTEN)): decreased
Akt phosphorylation (Akt; all three cell lines, FIG. 1F): completely inhibited
decreasing Akt phosphorylation (Akt): very active
phosphorylation of tuberin (tuberin): inhibited

CCCCCCCCCCCCCCCCCCOCC(COP(=O)(O)OC1C(O)CCC(O)C1O)OC (centres unmarked) [SH25]
phosphorylation of FKHR (FKHR): inhibited
phosphorylation of P70S6K (p70S6K): inhibited
phosphorylation of AFX (AFX): inhibited
phosphorylation of 4EBP-1 (4EBP-1): inhibited
native Akt levels (immunoblot) (Akt): without affecting
Akt phosphorylation at S473 (immunoblot) (Akt; H1703 cells (wild type PTEN)): decreased
Akt phosphorylation (Akt; all three cell lines, FIG. 1F): completely inhibited
decreasing Akt phosphorylation (Akt): very active
phosphorylation of tuberin (tuberin): inhibited
